Read-outs that look alike come from different tables or passages of the source.
Tests used:
HERG channel = target: T1, HERG channel (Homo sapiens, UniProt Q12809); assay: Predictor hERG Fluorescence Polarization Assay; format: binding; settings: membrane preparation with overexpressed HERG channels, 10-point, duplicate
T1 construct: purchased Invitrogen; host or cells: membrane preparation with overexpressed HERG channels
Protocol: The activity of a representative disclosed compound, compound 3 (N-(3-(6-((3-morpholinophenyl)amino)-1H-pyrazolo[3,4-d]pyrimidin-4-yl)phenyl)acrylamide), was evaluated in a HERG channel assay. Briefly, the compounds were assessed using the Invitrogen Predictor™ hERG Fluorescence Polarization Assay with excitation at 530 nm and emission at 580 nm using a membrane preparation with overexpressed HERG channels. The compound was tested in a 10-point dose response curves in duplicate and using E-4031 (N-[4-[[1-[2-(6-Methyl-2-pyridinyl)ethyl]-4-piperidinyl]carbonyl]phenyl]methanesulfonamide dihydrochloride), a known HERG channel inhibitor, as an assay positive control. The data are shown in FIG. 6, and the figure showns the average inhibition versus the compound.

451 kinase types = assay: KINOMEscan Assay Panel broad kinase screen; format: binding, human; settings: screen against 451 kinase types
Protocol: The kinase selectivity of a representative disclosed compound, compound 3 (N-(3-(6-((3-morpholinophenyl)amino)-1H-pyrazolo[3,4-d]pyrimidin-4-yl)phenyl)acrylamide), which corresponds to compound 3 in Table I, was evaluated in multiple kinase assays. A broad based screen was conducted against 451 kinase types using the KINOMEscan Assay Panel. The results were able to map 14 interactions with an S-Score(35)=0.03. The interactions are highlighted in FIG. 4 (panels A and B), and are indicated by the dark circles in the figure.

[1] = Glutathione (GSH) trapping assay; format: in vitro ADME; settings: peak area vs intact compound 3 at time zero, 1 mg/mL human liver microsomal protein
Excerpt: Drug metabolism in vivo can lead to reactive intermediates that form covalent adducts with cellular materials. Such covalent binding of reactive metabolites is potentially involved in severe adverse drug reactions. However, the covalent binding assay is of low throughput and costly, a qualitative trapping assay measuring trapping of drug glutathione conjugates in human liver microsomes can provide information on the propensity of a drug candidate to be involved in covalent binding reactions. A glutathione (GSH) trapping assay was carried out on representative disclosed compound, compound 3, and the results are shown in Table VIII. […] The assay was carried out with 1 mg total human liver microsomal protein per milliliter.

Cytochrome P450 3A4 = target: T2, Cytochrome P450 3A4 (Homo sapiens, UniProt P08684); assay: Cytochrome P450 inhibition (P450 BACULOSOMES, Vivid substrates); format: in vitro ADME
T2 construct: purchased Invitrogen
T2 sequence (P08684 whole entry): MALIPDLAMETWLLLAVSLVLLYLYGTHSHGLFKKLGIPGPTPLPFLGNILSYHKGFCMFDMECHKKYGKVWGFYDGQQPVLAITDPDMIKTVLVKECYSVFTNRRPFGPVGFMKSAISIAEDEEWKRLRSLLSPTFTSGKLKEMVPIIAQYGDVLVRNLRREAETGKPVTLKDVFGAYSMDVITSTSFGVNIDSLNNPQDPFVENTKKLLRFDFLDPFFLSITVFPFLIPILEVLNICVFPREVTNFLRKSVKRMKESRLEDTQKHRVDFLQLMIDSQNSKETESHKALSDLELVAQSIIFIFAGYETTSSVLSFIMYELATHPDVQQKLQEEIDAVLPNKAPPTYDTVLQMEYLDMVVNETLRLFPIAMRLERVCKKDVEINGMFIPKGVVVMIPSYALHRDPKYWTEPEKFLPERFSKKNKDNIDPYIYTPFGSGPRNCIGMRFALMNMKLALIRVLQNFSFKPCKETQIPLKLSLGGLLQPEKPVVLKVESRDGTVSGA
Protocol: (§1) A number of ADME properties were determined for a representative disclosed compound, compound 3 (N-(3-(6-((3-morpholinophenyl)amino)-1H-pyrazolo[3,4-d]pyrimidin-4-yl)phenyl)acrylamide), which corresponds to compound 3 in Table I. Drug inhibition of cytochrome P450 enzymes is a common cause of drug-drug intereaction issues in the clinic. The compound was tested in assays for commonly screened Cytochrome P450s, specifically the 1A2, 2C9, 2C19, 2D6, and 3A4 isoforms. The IC50 determinations were performed in duplicate using 10-point titrations of test compound using Invitrogen P450 BACULOSOMES® reagents and Vivid® CyP450 Screening substrates.

Cytochrome P450 1A2 = target: T3, Cytochrome P450 1A2 (Homo sapiens, UniProt P05177); assay: as above; format: in vitro ADME; settings: 10-point titration, duplicate; read-out: CYP Activity 1A2 IC50
T3 construct: purchased Invitrogen
T3 sequence (P05177 1-516): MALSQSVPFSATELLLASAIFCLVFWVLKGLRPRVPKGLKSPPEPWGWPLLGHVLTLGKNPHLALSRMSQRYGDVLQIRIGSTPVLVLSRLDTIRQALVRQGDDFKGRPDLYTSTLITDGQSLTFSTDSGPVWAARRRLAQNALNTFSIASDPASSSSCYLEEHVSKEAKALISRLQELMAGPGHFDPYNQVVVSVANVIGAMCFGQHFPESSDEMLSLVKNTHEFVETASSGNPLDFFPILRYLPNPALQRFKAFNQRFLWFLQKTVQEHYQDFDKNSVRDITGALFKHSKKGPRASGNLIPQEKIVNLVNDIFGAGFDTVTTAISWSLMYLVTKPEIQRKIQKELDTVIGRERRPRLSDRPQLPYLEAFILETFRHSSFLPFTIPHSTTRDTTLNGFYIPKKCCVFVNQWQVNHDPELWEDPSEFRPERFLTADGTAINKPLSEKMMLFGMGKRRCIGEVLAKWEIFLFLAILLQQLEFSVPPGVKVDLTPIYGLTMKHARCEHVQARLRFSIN
Protocol: as §1

Cytochrome P450 2D6 = target: T4, Cytochrome P450 2D6 (Homo sapiens, UniProt P10635); assay: as above; format: in vitro ADME; settings: 10-point titration, duplicate; read-out: CYP Activity 2D6 IC50
T4 construct: purchased Invitrogen
T4 sequence (P10635 whole entry): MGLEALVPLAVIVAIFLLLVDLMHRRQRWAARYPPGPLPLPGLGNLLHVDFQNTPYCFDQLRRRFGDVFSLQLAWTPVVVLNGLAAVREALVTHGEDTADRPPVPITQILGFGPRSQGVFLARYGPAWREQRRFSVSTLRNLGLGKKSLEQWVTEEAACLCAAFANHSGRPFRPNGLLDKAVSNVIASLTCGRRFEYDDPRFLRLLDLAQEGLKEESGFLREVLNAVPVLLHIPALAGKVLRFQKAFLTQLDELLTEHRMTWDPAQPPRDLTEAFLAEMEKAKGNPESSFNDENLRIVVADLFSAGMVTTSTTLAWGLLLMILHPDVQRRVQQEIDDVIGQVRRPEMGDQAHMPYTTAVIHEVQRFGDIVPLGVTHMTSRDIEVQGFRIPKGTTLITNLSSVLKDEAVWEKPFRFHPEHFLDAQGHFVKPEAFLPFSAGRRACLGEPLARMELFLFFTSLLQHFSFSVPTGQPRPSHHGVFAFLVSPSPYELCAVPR
Protocol: as §1

Cytochrome P450 2C19 = target: T5, Cytochrome P450 2C19 (Homo sapiens, UniProt P33261); assay: as above; format: in vitro ADME; settings: 10-point titration, duplicate; read-out: CYP Activity 2C19 IC50
T5 construct: purchased Invitrogen
T5 sequence (P33261 whole entry): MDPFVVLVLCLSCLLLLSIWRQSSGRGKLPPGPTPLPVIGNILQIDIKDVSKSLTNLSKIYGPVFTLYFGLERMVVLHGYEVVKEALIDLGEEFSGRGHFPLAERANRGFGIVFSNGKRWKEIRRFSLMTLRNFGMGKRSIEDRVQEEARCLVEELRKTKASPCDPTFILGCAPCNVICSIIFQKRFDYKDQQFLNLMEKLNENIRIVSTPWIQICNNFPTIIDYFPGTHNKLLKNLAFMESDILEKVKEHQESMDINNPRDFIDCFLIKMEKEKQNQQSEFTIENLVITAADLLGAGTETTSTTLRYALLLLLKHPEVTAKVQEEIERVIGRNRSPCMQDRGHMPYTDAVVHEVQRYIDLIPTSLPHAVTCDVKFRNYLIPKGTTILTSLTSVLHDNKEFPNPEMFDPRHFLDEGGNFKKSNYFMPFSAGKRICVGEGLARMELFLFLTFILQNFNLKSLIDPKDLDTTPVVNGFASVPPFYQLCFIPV
Protocol: as §1

Cytochrome P450 2C9 = target: T6, Cytochrome P450 2C9 (Homo sapiens, UniProt P11712); assay: as above; format: in vitro ADME; settings: 10-point titration, duplicate; read-out: CYP Activity 2C9 IC50
T6 construct: purchased Invitrogen
T6 sequence (P11712 whole entry): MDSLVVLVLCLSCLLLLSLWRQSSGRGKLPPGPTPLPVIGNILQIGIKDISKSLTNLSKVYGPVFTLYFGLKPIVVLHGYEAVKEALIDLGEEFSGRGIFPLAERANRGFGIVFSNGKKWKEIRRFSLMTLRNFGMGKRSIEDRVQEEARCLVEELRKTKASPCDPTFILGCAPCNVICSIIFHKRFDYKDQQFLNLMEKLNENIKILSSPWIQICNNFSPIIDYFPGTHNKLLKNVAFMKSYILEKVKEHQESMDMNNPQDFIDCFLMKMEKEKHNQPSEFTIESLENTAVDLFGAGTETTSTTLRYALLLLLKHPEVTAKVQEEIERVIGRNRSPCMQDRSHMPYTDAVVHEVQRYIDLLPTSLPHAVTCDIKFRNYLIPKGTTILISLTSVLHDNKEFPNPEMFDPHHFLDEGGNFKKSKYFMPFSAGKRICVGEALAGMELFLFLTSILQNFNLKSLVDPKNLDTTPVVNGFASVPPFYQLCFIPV
Protocol: as §1

Plasma stability assay = format: in vitro ADME; design: half-life: dose or concentration left out as unconfirmed
Protocol: The representative compound, compound 3, was also assessed in a plasma stability assay. Briefly, the compound was present at a concentration […] in plasma from three mammalian species (human, rat, and mouse). The concentration of intact drug (i.e. unmodified drug) at the indicated time points was determined using a LC-MS/MS assay. The data are consistent with good drug stability under the conditions tested.

T1 sequence (Q12809 whole entry): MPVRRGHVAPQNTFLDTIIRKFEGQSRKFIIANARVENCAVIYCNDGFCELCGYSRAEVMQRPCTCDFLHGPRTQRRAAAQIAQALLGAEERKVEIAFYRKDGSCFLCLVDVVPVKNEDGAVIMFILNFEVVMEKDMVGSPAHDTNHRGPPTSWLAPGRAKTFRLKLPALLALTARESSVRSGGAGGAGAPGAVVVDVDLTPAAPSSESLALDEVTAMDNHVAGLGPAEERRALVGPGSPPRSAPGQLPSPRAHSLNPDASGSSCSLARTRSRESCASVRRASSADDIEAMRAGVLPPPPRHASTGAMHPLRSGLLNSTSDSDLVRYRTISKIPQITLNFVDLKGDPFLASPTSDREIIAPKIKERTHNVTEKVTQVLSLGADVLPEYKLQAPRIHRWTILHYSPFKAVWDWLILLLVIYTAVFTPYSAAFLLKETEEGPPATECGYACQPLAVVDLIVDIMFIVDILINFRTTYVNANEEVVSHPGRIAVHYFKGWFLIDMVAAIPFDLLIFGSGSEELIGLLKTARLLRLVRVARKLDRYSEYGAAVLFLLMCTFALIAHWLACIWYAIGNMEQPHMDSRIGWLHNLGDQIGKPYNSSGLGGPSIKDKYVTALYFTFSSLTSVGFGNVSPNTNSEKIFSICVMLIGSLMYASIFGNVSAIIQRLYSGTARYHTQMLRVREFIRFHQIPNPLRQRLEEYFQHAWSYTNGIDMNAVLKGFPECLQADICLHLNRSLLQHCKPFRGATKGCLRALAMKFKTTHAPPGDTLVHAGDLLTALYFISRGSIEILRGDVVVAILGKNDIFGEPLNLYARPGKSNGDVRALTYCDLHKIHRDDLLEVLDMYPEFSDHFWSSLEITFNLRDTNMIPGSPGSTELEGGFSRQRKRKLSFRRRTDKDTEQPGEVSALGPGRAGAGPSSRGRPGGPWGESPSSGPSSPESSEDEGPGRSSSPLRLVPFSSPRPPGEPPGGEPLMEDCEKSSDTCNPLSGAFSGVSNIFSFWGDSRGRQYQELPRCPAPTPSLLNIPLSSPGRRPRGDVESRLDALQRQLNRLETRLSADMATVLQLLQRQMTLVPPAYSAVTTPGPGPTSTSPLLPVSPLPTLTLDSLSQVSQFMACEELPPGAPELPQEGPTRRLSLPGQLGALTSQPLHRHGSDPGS

Number of interactions mapped (451 kinase types): 14 | S-Score(35) (451 kinase types): 0.03 | % Compared to Parent Compound, 0 min ([1]; 0 min): 100% | % Compared to Parent Compound, 60 min ([1]; 60 min): 47% | IC50 (Cytochrome P450 3A4; BOMCC substrate, read-out: CYP Activity 3A4/BOMCC IC50): 670 nM | IC50 (Cytochrome P450 3A4; DBOMF substrate, read-out: CYP Activity 3A4/DBOMF IC50): 2050 nM | IC50 (Cytochrome P450 1A2): ≥ 10000 nM | IC50 (Cytochrome P450 2D6): ≥ 10000 nM | IC50 (Cytochrome P450 2C19): 2630 nM | IC50 (Cytochrome P450 2C9): 2170 nM | half-life (Plasma stability assay; human plasma): > 2 h | Compound Remaining (Plasma stability assay; human plasma, 0 min): 100 % of initial amount | Compound Remaining (Plasma stability assay; human plasma, 15 min): 90.1 % of initial amount | Compound Remaining (Plasma stability assay; human plasma, 30 min): 99.6 % of initial amount | Compound Remaining (Plasma stability assay; human plasma, 60 min): 91.3 % of initial amount | Compound Remaining (Plasma stability assay; human plasma, 120 min): 78.6 % of initial amount | half-life (Plasma stability assay; mouse plasma): > 2 h | Compound Remaining (Plasma stability assay; mouse plasma, 0 min): 100 % of initial amount | Compound Remaining (Plasma stability assay; mouse plasma, 15 min): 100 % of initial amount | Compound Remaining (Plasma stability assay; mouse plasma, 30 min): 101 % of initial amount | Compound Remaining (Plasma stability assay; mouse plasma, 60 min): 85.8 % of initial amount | Compound Remaining (Plasma stability assay; mouse plasma, 120 min): 91.7 % of initial amount | half-life (Plasma stability assay; rat plasma): > 2 h | Compound Remaining (Plasma stability assay; rat plasma, 0 min): 100 % of initial amount | Compound Remaining (Plasma stability assay; rat plasma, 15 min): 95.2 % of initial amount | Compound Remaining (Plasma stability assay; rat plasma, 30 min): 92.9 % of initial amount | Compound Remaining (Plasma stability assay; rat plasma, 60 min): 80.2 % of initial amount | Compound Remaining (Plasma stability assay; rat plasma, 120 min): 55.9 % of initial amount
SMILES: C=CC(=O)Nc1cccc(-c2nc(Nc3cccc(N4CCOCC4)c3)nc3[nH]ncc23)c1 [Compound 3, N-(3-(6-((3-morpholinophenyl)amino)-1H-pyrazolo[3,4-d]pyrimidin-4-yl)phenyl)acrylamide]
IC50 (HERG channel): > 10000 nM

Source: patent US20150252048A1, “SUBSTITUTED N-(3-PYRIMIDIN-4-YL)PHENYL)ACRYLAMIDE ANALOGS AS TYROSINE RECEPTOR KINASE BTK INHIBITORS” (UNIVERSITY OF UTAH RESEARCH FOUNDATION, priority 2012, published 2015)
